# Experimental data taken from patent US20170355705A1 (GlaxoSmithKline Intellectual Property (No.2) Limited, priority 2014, published 2017).
# Target: T1, SIRT1 (Homo sapiens, UniProt Q96EB6)
# T1 sequence (Q96EB6 1-747): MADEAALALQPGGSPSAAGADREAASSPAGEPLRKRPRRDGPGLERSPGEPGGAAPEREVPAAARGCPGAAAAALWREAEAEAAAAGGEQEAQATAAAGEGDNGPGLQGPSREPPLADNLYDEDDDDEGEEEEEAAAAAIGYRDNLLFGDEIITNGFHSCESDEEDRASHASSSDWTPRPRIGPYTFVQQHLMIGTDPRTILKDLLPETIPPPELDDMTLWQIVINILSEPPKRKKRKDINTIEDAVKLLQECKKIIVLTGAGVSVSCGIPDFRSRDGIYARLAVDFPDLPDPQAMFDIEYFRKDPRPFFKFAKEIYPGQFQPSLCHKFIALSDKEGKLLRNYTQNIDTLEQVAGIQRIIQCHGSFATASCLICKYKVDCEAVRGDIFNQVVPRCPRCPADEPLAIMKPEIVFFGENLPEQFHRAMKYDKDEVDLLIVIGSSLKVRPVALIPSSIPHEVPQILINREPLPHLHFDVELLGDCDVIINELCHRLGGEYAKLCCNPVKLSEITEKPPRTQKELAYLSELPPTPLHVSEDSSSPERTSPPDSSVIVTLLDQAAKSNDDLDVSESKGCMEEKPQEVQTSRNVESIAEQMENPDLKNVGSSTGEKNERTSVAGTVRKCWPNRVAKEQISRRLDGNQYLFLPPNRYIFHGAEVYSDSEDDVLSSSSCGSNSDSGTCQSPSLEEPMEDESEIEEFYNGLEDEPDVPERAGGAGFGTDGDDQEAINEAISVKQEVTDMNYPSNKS
# Assay: Trp mass spectrometry assay of SIRT1 activity (EC1.5, percent maximum activation)
# Assay type: biochemical
# Conditions: Trp mass spectrometry assay; for TRP Activity (EC1.5): EC1.5 = concentration giving 150% activation of SIRT1
# How it was run: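 MS readout: O-acetyl-ADP-ribose (or deacetylated peptide) formed by His-tagged SIRT1 (BL21(DE3)-expressed) on 5TMR-Trp p53-based peptide, 25 min, formic acid stop. EC1.5 = concentration raising activity 50% over no-compound control; % max activation vs control = 100%.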
# [1] = percent maximum activation of SIRT1
# [2] = 0.5 μM peptide substrate, 120 μM βNAD+, 10 nM SIRT1, 25 minutes at 25° C.
TRP Activity (EC1.5),TRP MAX RESP (percent maximum fold activation) [1],"TRP Activity (EC1.5, concentration of test compound that results in 150% activation of SIRT1) [2]",TRP MAX RESP (percent maximum fold activation) [2],SMILES
B (EC1.5 1-25 μM),A (Fold activation ≧150%),–,–,"O=C(Nc1cnccn1)N1c2nc(N3CCCCC3)ccc2N2CC[C@H]1C2 [Example 181, (4S)-7-(piperidin-1-yl)-N-(pyrazin-2-yl)-3,4-dihydro-1,4-methanopyrido[2,3-b][1,4]diazepine-5(2H)-carboxamide]"
B (EC1.5 1-25 μM),A (Fold activation ≧150%),–,–,"Cc1cc(-c2nc3c(cc2Br)N2CC[C@@H](C2)N3C(=O)Nc2cccnc2)ccn1 [Example 12, (4S)-8-bromo-7-(2-methylpyridin-4-yl)-N-(pyridin-3-yl)-3,4-dihydro-1,4-methanopyrido[2,3-b][1,4]diazepine-5(2H)-carboxamide]"
B (EC1.5 1-25 μM),A (Fold activation ≧150%),–,–,"Cc1ccc(-c2ccc3c(n2)N(C(=O)Nc2cnccn2)[C@H]2CCN3C2)c(C)n1 [Example 200, (4S)-7-(2,6-dimethylpyridin-3-yl)-N-(pyrazin-2-yl)-3,4-dihydro-1,4-methanopyrido[2,3-b][1,4]diazepine-5(2H)-carboxamide]"
B (EC1.5 1-25 μM),A (Fold activation ≧150%),–,–,"O=C(Nc1cnccn1)N1c2nc(-c3ccc(CO)nc3)ccc2N2CC[C@H]1C2 [Example 147, (4S)-7-(6-(hydroxymethyl)pyridin-3-yl)-N-(pyrazin-2-yl)-3,4-dihydro-1,4-methanopyrido[2,3-b][1,4]diazepine-5(2H)-carboxamide]"
–,–,B (EC1.5 1-25 μM),A (Fold activation ≧150%),"O=C(Nc1cnccn1)N1c2nc(N3CCOC(C(F)(F)F)C3)ccc2N2CC[C@H]1C2 (single isomer, unassigned) [Example 230]"
–,–,–,A (Fold activation ≧150%),Cn1ccc(-c2ccc3c(n2)N(C(=O)Nc2cnccn2)[C@H]2CCN3C2)cc1=O [Example 264]
A (EC1.5<1 μM),A (Fold activation ≧150%),–,–,"O=C(Nc1ccnc(OCC(O)CO)c1)N1c2nc(-c3cccc(C(F)(F)F)c3)ccc2N2CC[C@H]1C2 (stereo in doubt) [Example 170, (4S)-N-(2-((S)-2,3-dihydroxypropoxy)pyridin-4-yl)-7-(3-(trifluoromethyl)phenyl)-3,4-dihydro-1,4-methanopyrido[2,3-b][1,4]diazepine-5(2H)-carboxamide]"
B (EC1.5 1-25 μM),A (Fold activation ≧150%),–,–,"Cc1ccc(-c2nc3c(cc2C#N)N2CC[C@@H](C2)N3C(=O)Nc2cccnc2)cn1 [Example 10, (4S)-8-cyano-7-(6-methylpyridin-3-yl)-N-(pyridin-3-yl)-3,4-dihydro-1,4-methanopyrido[2,3-b][1,4]diazepine-5(2H)-carboxamide]"

# Further lines, the compound ahead of its results:
SMILES,TRP Activity (EC1.5),TRP MAX RESP (percent maximum fold activation) [1],"TRP Activity (EC1.5, concentration of test compound that results in 150% activation of SIRT1) [2]",TRP MAX RESP (percent maximum fold activation) [2]
"O=C(Nc1ccnc(OC[C@@H](O)CO)n1)N1c2nc(-c3cccc(C(F)(F)F)c3)c(Cl)cc2N2CC[C@H]1C2 [Example 30, (4S)-8-chloro-N-(2-((S)-2,3-dihydroxypropoxy)pyrimidin-4-yl)-7-(3-(trifluoromethyl)phenyl)-3,4-dihydro-1,4-methanopyrido[2,3-b][1,4]diazepine-5(2H)-carboxamide]",A (EC1.5<1 μM),A (Fold activation ≧150%),–,–
"Cc1cc2c(nc1-c1cccc(C(F)(F)F)c1)N(C(=O)Nc1ccnc(OC[C@@H](O)CO)c1)[C@H]1CCN2C1 [Example 101, (4S)-N-(2-((S)-2,3-dihydroxypropoxy)pyridin-4-yl)-8-methyl-7-(3-(trifluoromethyl)phenyl)-3,4-dihydro-1,4-methanopyrido[2,3-b][1,4]diazepine-5(2H)-carboxamide]",A (EC1.5<1 μM),A (Fold activation ≧150%),–,–
"Cc1ncc(-c2ccnc(NC(=O)N3c4nc(-c5cccc(C(F)(F)F)c5)cc(C)c4N4CC[C@H]3C4)c2)o1 [Example 86, (4S)-9-methyl-N-(4-(2-methyloxazol-5-yl)pyridin-2-yl)-7-(3-(trifluoromethyl)phenyl)-3,4-dihydro-1,4-methanopyrido[2,3-b][1,4]diazepine-5(2H)-carboxamide]",A (EC1.5<1 μM),A (Fold activation ≧150%),–,–
"O=C(Nc1nccc(OC[C@@H](O)CO)n1)N1c2nc(-c3cccc(C(F)(F)F)c3)c(Cl)cc2N2CC[C@H]1C2 [Example 57, (4S)-8-chloro-N-(4-((S)-2,3-dihydroxypropoxy)pyrimidin-2-yl)-7-(3-(trifluoromethyl)phenyl)-3,4-dihydro-1,4-methanopyrido[2,3-b][1,4]diazepine-5(2H)-carboxamide]",A (EC1.5<1 μM),A (Fold activation ≧150%),–,–
"Cc1cc(-c2nc3c(cc2Cl)N2CC[C@@H](C2)N3C(=O)Nc2ccnc(O[C@H]3CCOC3)n2)ccn1 [Example 20, (4S)-8-chloro-7-(2-methylpyridin-4-yl)-N-(2-(((S)-tetrahydrofuran-3-yl)oxy)pyrimidin-4-yl)-3,4-dihydro-1,4-methanopyrido[2,3-b][1,4]diazepine-5(2H)-carboxamide]",C (EC1.5>25 μM),A (Fold activation ≧150%),–,–
"Cl.O=C(Nc1cccc(OC[C@@H](O)CO)n1)N1c2nc(-c3cccc(C(F)(F)F)c3)c(Cl)cc2N2CC[C@H]1C2 [Example 68, (4S)-8-chloro-N-(6-((S)-2,3-dihydroxypropoxy)pyridin-2-yl)-7-(3-(trifluoromethyl)phenyl)-3,4-dihydro-1,4-methanopyrido[2,3-b][1,4]diazepine-5(2H)-carboxamide Hydrochloride]",A (EC1.5<1 μM),A (Fold activation ≧150%),–,–
"Cc1cc(-c2ccc3c(n2)N(C(=O)N2CCN(C)CC2)[C@H]2CCN3C2)ccn1 [Example 174, (4-methylpiperazin-1-yl)((4S)-7-(2-methylpyridin-4-yl)-3,4-dihydro-1,4-methanopyrido[2,3-b][1,4]diazepin-5(2H)-yl)methanone]",C (EC1.5>25 μM),B (Fold Activation <150%),–,–
"O=C(Nc1ncc(OC[C@@H](O)CO)cn1)N1c2nc(-c3cccc(C(F)(F)F)c3)c(Cl)cc2N2CC[C@H]1C2 [Example 83, (4S)-8-chloro-N-(5-((S)-2,3-dihydroxypropoxy)pyrimidin-2-yl)-7-(3-(trifluoromethyl)phenyl)-3,4-dihydro-1,4-methanopyrido[2,3-b][1,4]diazepine-5(2H)-carboxamide]",B (EC1.5 1-25 μM),A (Fold activation ≧150%),–,–
"Cc1ccc(-c2nc3c(cc2Br)N2CC[C@@H](C2)N3C(=O)Nc2cccnc2)cn1 [Example 6, (4S)-8-bromo-7-(6-methylpyridin-3-yl)-N-(pyridin-3-yl)-3,4-dihydro-1,4-methanopyrido[2,3-b][1,4]diazepine-5(2H)-carboxamide]",B (EC1.5 1-25 μM),A (Fold activation ≧150%),–,–
"Cl.O=C(Nc1cc(OC[C@@H](O)CO)ccn1)N1c2nc(-c3cccc(C(F)(F)F)c3)c(Cl)cc2N2CC[C@H]1C2 [Example 64, (4S)-8-chloro-N-(4-((S)-2,3-dihydroxypropoxy)pyridin-2-yl)-7-(3-(trifluoromethyl)phenyl)-3,4-dihydro-1,4-methanopyrido[2,3-b][1,4]diazepine-5(2H)-carboxamide, Hydrochloride]",B (EC1.5 1-25 μM),A (Fold activation ≧150%),–,–
"Cc1cc(-c2nc3c(cc2Cl)N2CC[C@@H](C2)N3C(=O)Nc2cncc(OC[C@H](O)CO)n2)ccn1 [Example 97, (4S)-8-chloro-N-(6-((R)-2,3-dihydroxypropoxy)pyrazin-2-yl)-7-(2-methylpyridin-4-yl)-3,4-dihydro-1,4-methanopyrido[2,3-b][1,4]diazepine-5(2H)-carboxamide]",C (EC1.5>25 μM),B (Fold Activation <150%),–,–
"Cc1cc(-c2ccc3c(n2)N(C(=O)N2CCCCC2)[C@H]2CCN3C2)ccn1 [Example 151, ((4S)-7-(2-methylpyridin-4-yl)-3,4-dihydro-1,4-methanopyrido[2,3-b][1,4]diazepin-5(2H)-yl)(piperidin-1-yl)methanone]",C (EC1.5>25 μM),B (Fold Activation <150%),–,–
